Series [1] concerns BAEC. The series is described as follows: Doxorubicin uptake by cultured BAEC. In kind it is cell-based. Particulars: lipid 10 μM, doxorubicin 50 μM simultaneously, 60 minutes, uptake in the absence of lipid = 100%. On the procedure: A range of glycosphingolipids and sphingomyelins having different structures were also studied. The data are summarised in the following tables, and are expressed as a percentage (+/−SD) of doxorubicin uptake by cultured BAEC, as compared to drug uptake in the absence of lipid. Glycosphingolipids and sphingomyelins were used at 10 μM. Doxorubicin was administered simultaneously at 50 μM. After 60 minutes, cells were washed and cellular doxorubicin contents were determined fluorimetrically. Background fluorescence was subtracted from all values and all data were corrected for protein contents. Each data point is the average value of at least three independent experiments, but some lipids were assayed in 10 or more independent experiments. For each experiment 4, 6 or 8 wells with cells were treated identically and the data were then averaged (=1 experiment).

Series [2] relates to A431 cells. The series is described as follows: Cell viability (MTT assay). Particulars: for viability after 24 hour exposure: 24 hour exposure to 20 μM lipid. Format: cell-based, human. On the procedure: For viability assessment, A431 cells were cultured in flat-bottom 96-well plates. After experimental treatments, 100 μg of the mitochondrial dehydrogenase substrate MTT was added to each well (see, e.g., Carmichael et al., 1987). Cells were then incubated for 60 minutes at 37° C. After centrifugation (3000 rpm, 10 minutes at 4° C.) supernatants were removed. The precipitated blue formazan products were then dissolved in 100 μl DMSO, and absorbencies were read in a Bio-Tek Instruments EL 340 photospectrometric microplate reader at 540 nm. Background absorbencies were subtracted and values from wells containing untreated control cells were set at 100% viability.
(In general: Tetrazolium dyes change colour on reduction, which living cells bring about.)

The test system of series [3] is A431 cells. As to the kind of experiment: Membrane leakage assay (LDH release). Format: cell-based, human. Particulars: for LDH release: 100 μM lipid. On the procedure:
To investigate (loss of) plasma membrane integrity, the release of the cytosolic enzyme LDH into phenol red-free cell culture medium was monitored. Flat-bottom 96-well plates containing (liposome-treated) A431 cells were centrifuged (2000 rpm, 5 minutes at 20° C.) and 50 μl aliquots of the supernatants were assessed for LDH activity with the CytoTox 96 kit, according the manufacturer's instructions. Values obtained from cells that were lysed in 0.8% Triton X-100 served as positive control. All data were corrected for protein contents, as determined with the BCA assay (see, e.g., Smith et al., 1985).
On the technique in general: Release of lactate dehydrogenase indicates damage to the cell membrane.

Series [4] deals with A431 cells. The series is described as follows: Cellular doxorubicin uptake. To be noted: 15 μM co-administered lipid, within an hour, control conditions = 100%. In kind it is cell-based, human. On the procedure: A431 (adherent human epidermoid carcinoma cells) were cultured in Dulbecco's modified Eagle medium (DMEM), supplemented with 10% (v/v) fetal calf serum, 100 units/ml penicillin, 100 μg/ml streptomycin and 4 mM L-glutamine. Cells were sub-cultured once a week by trypsinization and maintained in a water-saturated atmosphere of 5% CO2 at 37° C. All studies were performed at a confluency of 80-90%.
For cellular doxorubicin accumulation measurements, A431 cells were cultured in flat-bottom 96-well plates. At confluency, cells were changed to serum-free medium and exposed to 50 μM free or to 20 μM liposomal doxorubicin. After extensive washing, cells were lysed in 100 μl of 1% (w/v) Triton X-100. Native fluorescence intensities were then measured by a Perkin Elmer Victor Wallac II fluorescence microplate reader, using 485 nm and 535 nm filters for excitation and emission, respectively. All values were corrected for background fluorescence. Cellular doxorubicin contents were calculated with the aid of standard amounts, and corrected for differences in protein content, as determined with the BCA assay (see, e.g., Smith et al., 1985).

Regarding `CCCCCCCCCCCCC/C=C/[C@@H](OC)[C@H](COP(=O)([O-])OCC[N+](C)(C)C)NC(=O)CCCCCCC` [3-O-methyl-C8-SM], the “doxorubicin uptake, mean % ± SD (sphingomyelins)” value in series [1] was 249.8 ± 36.5%.
As to `CCCCCCCCCCCCC/C=C/[C@@H](O)[C@@H](N)CO[C@@H]1O[C@H](CO)[C@H](O)[C@H](O)[C@H]1O` [C0-GalCer], the “doxorubicin uptake, mean % ± SD (glycosphingolipids)” value in series [1] came out at 98.2 ± 9.3%.
As for `CCCCCCCCCCCCC/C=C/[C@@H](O)[C@@H](N)CO[C@@H]1O[C@H](CO)[C@@H](O)[C@H](O)[C@H]1O` [C0-GlcCer], the “doxorubicin uptake, mean % ± SD (glycosphingolipids)” value in series [1] turned out to be 86.7 ± 16.2%.
With `CCCCCCCCCCCCC/C=C/[C@@H](O)C(N)CO[C@H]1O[C@H](CO)[C@@H](O[C@@H]2O[C@H](CO)[C@H](O)[C@H](O)[C@H]2O)[C@H](O)[C@@H]1O` (stereo partly drawn) [C0-LacCer], the “doxorubicin uptake, mean % ± SD (glycosphingolipids)” value in series [1] is recorded as 93.8 ± 4.0%.
As to `CCCCCCCCCCCCC/C=C/[C@@H](O)[C@@H](N)COP(=O)([O-])OCC[N+](C)(C)C` [C0-SM (SPC)], the “doxorubicin uptake, mean % ± SD (sphingomyelins)” value in series [1] is 128.3 ± 19.5%.
For `CCCCCCCCCCCCC/C=C/[C@@H](O)[C@H](CO)NC(=O)CCCCC` [C6-Cer], the “doxorubicin uptake, mean % ± SD (sphingomyelins)” value in series [1] came out at 96.6 ± 17.3%.
`CCCCCCCCCCCCC/C=C/[C@@H](O)[C@H](COP(=O)([O-])OCC[N+](C)(C)C)NC(=O)CCCCC` [C6-SM, N-hexanoyl-sphingomyelin]: the “viability after 24 hour exposure” value in series [2] worked out at 29.3±5.5%. The same molecule registered a viable cells in series [2] (determined 24 hours after a 1 hour incubation with 10 μM lipid) of 95.6±19.1%. In addition, in series [1], the “doxorubicin uptake, mean % ± SD (sphingomyelins)” value is 330.6 ± 92.3%. In addition, in series [3], the LDH release was 53.9±7.9%. In addition, the “LDH release (of total LDH activity)” value in series [3] (1 hour incubation with 10 μM lipid, 0.8% Triton X-100 = 100%) is 0.5±0.5%. Also, in series [4], the “uptake of free doxorubicin” value came to 461.8±126.9%.
`CCCCCCCCCCCCC/C=C/[C@@H](O)[C@H](COP(=O)(O)O)NC(=O)CCCCCCC` [C8-Cer-1-P]: the “doxorubicin uptake, mean % ± SD (sphingomyelins)” value in series [1] is on record as 122.2 ± 7.2%.
In the case of `CCCCCCCCCCCCCC=CC(O)C(COC1OC(CO)C(O)C(O)C1O)NC(=O)CCCCCCC` (stereo not drawn) [C8-GalCer], the “doxorubicin uptake, mean % ± SD (glycosphingolipids)” value in series [1] is on record as 213.7 ± 31.1%.
With `CCCCCCCCCCCCC/C=C/[C@@H](O)[C@H](COC1OC(CO)C(O)C(O)C1O)NC(=O)CCCCCCC` (stereo partly drawn) [C8-GlcCer, N-octanoyl-glucosylceramide], the “viability after 24 hour exposure” value in series [2] is 71.3±5.3%. Moreover, the “doxorubicin uptake, mean % ± SD (glycosphingolipids)” value in series [1] was determined as 335.8 ± 88.5%. In addition, the LDH release in series [3] was found to be 0.0±0.6%. In series [4], the “uptake of free doxorubicin” value came out at 271.7±58.5%.
In the case of `CCCCCCCCCCCCCC=CC(O)C(COC1OC(CO)C(OC2OC(CO)C(O)C(O)C2O)C(O)C1O)NC(=O)CCCCCCC` (stereo not drawn) [C8-LacCer], the “doxorubicin uptake, mean % ± SD (glycosphingolipids)” value in series [1] came to 301.5 ± 41.2%.
Take `CCCCCCCCCCCCCC=CC(O)C(COC1OC(CO)C(O)C(O)C1O)NC(=O)CCCCCCCCCCC` (stereo not drawn) [C12-GlcCer]: in series [1], the “doxorubicin uptake, mean % ± SD (glycosphingolipids)” value is recorded as 85.6 ± 12.0%.
`CCCCCCCCCCCCC/C=C/[C@@H](O)[C@@H](N)CO` [sphingosine, (2S,3R,4E)-2-amino-4-octadecene-1,3-diol]: in series [1], the “doxorubicin uptake, mean % ± SD (sphingomyelins)” value is 100.4 ± 20.3%.
